This is an account of results in article PMC3949622, “Macrocyclic Pyridyl Polyoxazoles: Structure-Activity Studies of the Aminoalkyl Side-Chain on G-Quadruplex Stabilization and Cytotoxic Activity” (Molecules, 2013).

The structures appear in SMILES notation. Several values for one entry are separate records, joined by “and”; a condition that tells them apart may be missing. Equal values may be shown once. Read-outs that look alike come from different tables or passages of the source. Marks after values point to notes of the source that are not given here.

In general, IC50 refers to the concentration at which inhibition is half-maximal.

The subject of experiment [1] is human telomeric sequence d[T2G3(T2AG3)3A] (hTel) quadruplex DNA. To be noted: change in transition temperature of hTel quadruplex DNA; ref [21]; cited from earlier work. The protocol:
Table 1 Effect of various pyridyl polyoxazoles on the thermal stabilities of duplex and quadruplex DNA. | column: hTel -Quadruplex DNA / ΔTtran (°C)^a || The results observed with the hTel quadruplex DNA however, stand in stark contrast with the ST duplex DNA results. In the series of three 4-phenyl substituted analogs compound 8 and 11 strongly stabilize G-quadruplex DNA by 20.5 and 24.6 °C respectively. Compound 8 has the tertiary amine directly connected to the phenyl while in 11 the amine is separated from the phenyl ring by two methylene groups. In contrast, the 3-dimethylaminopropyl analog 12 stabilizes G-quadruplex DNA to a much lesser extent. When the side-chain is attached to the 5-position of the phenyl ring the results are quite dram ...

Experiment [2] has as its system Salmon testes (ST) duplex DNA. To be noted: change in transition temperature of ST duplex DNA; ref [21]; cited from earlier work. An excerpt:
Table 1 Effect of various pyridyl polyoxazoles on the thermal stabilities of duplex and quadruplex DNA. | column: Salmon Testes Duplex DNA / ΔTtran (°C) ^a

Experiment [3] has as its system RPMI 8402 cells. To be noted: ref [21], cited from earlier work. An excerpt: (§1) Table 2 Relative cytotoxic activities. IC50 values (μM) ^a. | column: RPMI 8402 || The development of G-quadruplex stabilizers as a potential new class of anticancer agents hinges on the ability to design compounds that stabilize only G-quadruplexes and not other nucleic acid structures such as duplex or triplex DNA [15]. While a diverse array of compounds have been reported to stabilize G-quadruplex DNA [1], most also have some ability to stabilize duplex DNA. The natural product telomestatin for example, is reported to stabilize G-quadruplex DNA with 70:1 selectivity over duplex DNA [16, 17]. In contrast, the synthetic macrocyclic hexaoxazole HXDV (Figure 1) demonst ...

Experiment [4] concerns KB3-1 cells. As to conditions: ref [21], cited from earlier work.
Source text: as §1, with “KB3-1 wt.” for “RPMI 8402”

Experiment [5] deals with human breast cancer xenograft (MDA-MB-435). To be noted: MDA-MB-435 xenograft in athymic nude mice; ref [21]; cited from earlier work. The source says: (§2) The development of G-quadruplex stabilizers as a potential new class of anticancer agents hinges on the ability to design compounds that stabilize only G-quadruplexes and not other nucleic acid structures such as duplex or triplex DNA [15]. While a diverse array of compounds have been reported to stabilize G-quadruplex DNA [1], most also have some ability to stabilize duplex DNA. The natural product telomestatin for example, is reported to stabilize G-quadruplex DNA with 70:1 selectivity over duplex DNA [16, 17]. In contrast, the synthetic macrocyclic hexaoxazole HXDV (Figure 1) demonst ...

Experiment [6] deals with RPMI 8402 cells. Put plainly: MTT cytotoxicity assay, RPMI 8402. As to conditions: continuous exposure for four days, means of at least two determinations ± standard deviation. The class given is cell-based, human. The procedure: (§3) Each N,N-dimethylamino-substituted macrocycle was also evaluated for cytotoxic activity against a human lymphoblastoma RPMI 8402 and a human epidermoid carcinoma KB3-1 cell line (Table 2). The results from these assays are informative about the relationship of structure to cytotoxic activity among the PyPX macrocyclic G-quadruplex stabilizers. […] An explanation for this observation is not clear at this time. The three-carbon analogs 12 and 22 have nearly equivalent activity at both positions, but these longer-chain analogs are generally lower in activity than the two-carbon analogs. Attachment of the dimethylamino group directly to the phenyl ring (8 and 19) leads to compounds having the greatest cytotoxic potency at their respective points of attachment. […] In general analogs that have an even number (0 or 2) of methylene spacer groups are more cytotoxic than those with an odd number. […] Moving the side-chain away from the phenyl ring and onto an oxazole ring also fails to improve cytotoxic activity.
(§4) Cytotoxicity was determined using the MTT-microtiter plate tetrazolinium assay (MTA). The human lymphoblast RPMI 8402 cell line was provided by Dr. Toshiwo Andoh (Aichi Cancer Center Research Institute, Nagoya, Japan). The KB3-1 cell line was obtained from K.V. Chin (The Cancer Institute of New Jersey, New Brunswick, NJ, USA). The cytotoxicity assay was performed using 96-well microtiter plates. Cells were grown in suspension at 37 °C in 5% CO2 and maintained by regular passage in RPMI medium supplemented with 10% heat inactivated fetal bovine serum, L-glutamine (2 mM), penicillin (100 U/mL), and Streptomycin (0.1 mg/mL). For determination of IC50 values, cells were exposed continuously for four days to varying concentrations of drug, and MTT assays were performed at the end of the fourth day. […] All assays were performed at least twice in six replicate wells.
(Tetrazolium dyes change colour on reduction, which living cells bring about.)

Experiment [7] has as its system KB3-1 cells. Nature of the experiment: MTT cytotoxicity assay, KB3-1. Format: cell-based, human. To be noted: continuous exposure for four days, means of at least two determinations ± standard deviation, read-out: IC50, KB3-1 wt. The protocol: as §3, §4
The test system of the next experiment is several tumor cell lines. To be noted: ref [18],[20]; read-out: average IC50 towards several tumor cell lines; cited from earlier work.
Source text: as §2

On to `CN(C)CCc1cc2cc(c1)CNC(=O)c1coc(n1)-c1coc(n1)-c1cccc(n1)-c1nc(co1)-c1nc(co1)C(=O)NC2` [Compound 2], for which, in experiment [1], the “ΔTtran, hTel quadruplex DNA” value was 20.5 °C and 20.5 ^b °C. Further, in experiment [2], the “ΔTtran, salmon testes duplex DNA” value is 0 ^b °C. The IC50 with RPMI 8402 cells [3] (range given for analogs 1 and 2 together, read-out: IC50 against RPMI 8402 cells) is 90 to 180 nM; in the experiment with RPMI 8402 cells [3] (read-out: IC50, RPMI 8402), 180 nM; in the experiment with KB3-1 cells [4] (range given for analogs 1 and 2 together, read-out: IC50 against KB3-1 cells) it was 30 to 40 nM; with KB3-1 cells [4] (read-out: IC50, KB3-1 wt.), 40 nM. In experiment [5], the “%T/C (average tumor volumes of treated/control animals)” value was 27.7%.
For `CC(C)[C@@H]1NC(=O)c2coc(n2)-c2coc(n2)-c2coc(n2)[C@H](C(C)C)NC(=O)c2coc(n2)-c2coc(n2)-c2coc1n2` [HXDV, reference compound], the IC50 with RPMI 8402 cells [6] is 540 ± 120 nM; in the experiment on KB3-1 cells [7], 350 ± 80 nM; with several tumor cell lines, 500 nM. Also, in experiment [2], the “ΔTtran, salmon testes duplex DNA” value is 0 ^b °C.
